# Literature values in patent US7811790B2, “Polymyxin synthetase and gene cluster thereof” (priority 2005, dated 2010).
# How the values were obtained:
# [1] = therapeutic use
# [2] = water and organic solvent
# [3] = tested on: antibiotics-resistant Klebsiella pneumoniae; conditions: ventriculis caused by antibiotics-resistant Klebsiella pneumoniae
# [4] = tested on: Pseudomonas aeruginosa and Acinetobacter baumannii exhibiting resistance against the conventional antibiotics; conditions: intravenously injected, 60 patients
# [5] = tested on: Acinetobacter having resistance against antibiotics; conditions: meningitis caused by antibiotic-resistant Acinetobacter
# [6] = tested on: Pseudomonas aeruginosa having resistance against almost all antibiotics; conditions: 3 osteomyelitis patients
substance,measurement,setting,value
polymyxin,induced toxicity,[1],severe neurotoxicity and hepatotoxicity
same,side effects,[1],"serious side effects such as fever, eruption and pain"
same,solubility,[2],soluble in both water and an organic solvent
polymyxin B,effect on gram-positive bacteria,gram-positive bacteria,no effect
same,effect on fungi,fungi,no effect
same,effect on anaerobic bacteria,anaerobic bacteria,no effect
same,outcome of treatment of ventriculis,[3],successfully treated
polymyxin B sulfate,killed % of Pseudomonas aeruginosa,Pseudomonas aeruginosa; at the concentration of 0.01 μg/ml,88%
polymyxin E,patients improved,[4],58%
same,effect on gram-positive bacteria,gram-positive bacteria,no effect
same,concentration showing lethal effect,"Pseudomonas aeruginosa; organism not restated in the sentence, follows the Pseudomonas aeruginosa sentence",0.1 µg/mL
same,outcome of treatment of meningitis,[5],successfully treated
same,outcome of treatment of osteomyelitis,[6],improved
same,effect on fungi,fungi,no effect
same,effect on anaerobic bacteria,anaerobic bacteria,no effect
